Patent publication US20160075991A1, “Process for Preparing Starter Cultures of Lactic Acid Bacteria” (INSTITUT NATIONAL DE LA RECHERCHE, priority 1998, published 2016)

Tests used:
Test in all cases: Culture with hemin and agitation, different strains (Example 4)
Assay type in all cases: cell-based, L. lactis
IL1403 = details: strain IL1403, hemin 10 μg/ml and agitation, M17 1% glucose, 24 h
Experimental: (§1) Bacteria [MG1363 and 7 strains (IL1403, IL582, IL801, IL896, Z105, Z106, Z191) representative of L. lactis subgroups [TAILLEZ et al., System. Appl. Microbiol., 21, 530-538, (1998)] are cultured in M17 medium (1% glucose) inoculated (1/1000 dilution) with a saturated starter culture previously grown at 30° C. for 24 h. Hemin at a final concentration of 10 μg/ml is added to the inoculated medium before aerating the cultures by shaking (minimum 220 rpm). Control cultures are grown in parallel with no hemin in the medium, and no shaking. […]

IL896 = details: strain IL896, hemin 10 μg/ml and agitation, M17 1% glucose, 24 h
Experimental: as §1

Z191 = details: strain Z191, hemin 10 μg/ml and agitation, M17 1% glucose, 24 h
Experimental: as §1

IL582 = details: strain IL582, hemin 10 μg/ml and agitation, M17 1% glucose, 24 h
Experimental: as §1

Z105 = details: strain Z105, hemin 10 μg/ml and agitation, M17 1% glucose, 24 h
Experimental: as §1

MG1363 = details: strain MG1363, hemin 10 μg/ml and agitation, M17 1% glucose, 24 h
Experimental: as §1

C=CC1=C(C)c2cc3[n-]c(cc4nc(cc5[n-]c(cc1n2)c(C)c5C=C)C(C)=C4CCC(=O)O)c(CCC(=O)O)c3C.[Cl-].[Fe+3] [hemin]
pH (IL1403; final pH): 5.41 | OD500 nm (IL1403): 5.3 | pH (IL896; final pH): 5.24 | OD500 nm (IL896): 4.5 | pH (Z191; final pH): 5.36 | OD500 nm (Z191): 3.8 | pH (IL582; final pH): 5.73 | OD500 nm (IL582): 5.1 | pH (Z105; final pH): 5.67 | OD500 nm (Z105): 5 | pH (MG1363; final pH): 5.86 | OD500 nm (MG1363): 5
